Measurements taken from ChEMBL document CHEMBL4382286, “Nongenotoxic 3-Nitroimidazo[1,2-a]pyridines Are NTR1 Substrates That Display Potent in Vitro Antileishmanial Activity” (ACS Med Chem Lett, 2019).

Key:
[1] = test system: Trypanosoma brucei brucei; assay: Antitrypanosomal activity against trypomastigote stage of Trypanosoma brucei brucei AnTat 1.9 assessed as decrease in parasite viability after 69 hrs by Alamar Blue assay; assay type: functional, organism-based; conditions: AnTat 1.9, 69 h
Leishmania donovani [2] = assay: Antileishmanial activity against intracellular amastigote stage of Leishmania donovani infected in human THP1 cells after 120 hrs by giemsa staining based microscopic analysis; assay type: functional, organism-based; conditions: THP-1, 120 h
[3] = Substrate activity at NTR2 in promastigote stage of Leishmania donovani MHOM/SD/62/1S-CL2D assessed as inhibition of parasite growth after 72 hrs by resazurin dye based assay
[4] = Electrochemical behavior of the compound assessed as redox potential corrected toward normal hydrogen electrode by cyclic voltammetry
Leishmania donovani [5] = assay: Selectivity ratio of IC50 for NTR2 in promastigote stage of Leishmania donovani MHOM/SD/62/1S-CL2D to IC50 for NTR1 in promastigote stage of Leishmania donovani MHOM/SD/62/1S-CL2D
[6] = Aqueous solubility of the compound at >12.5 uM; assay type: physicochemical; conditions: buffer
Leishmania donovani [7] = assay: Selectivity ratio of IC50 for wild type promastigote stage of Leishmania donovani MHOM/SD/62/1S-CL2D to IC50 for NTR1 in promastigote stage of Leishmania donovani MHOM/SD/62/1S-CL2D
[8] = Cytotoxicity against human HepG2 cells after 72 hrs by MTT assay; assay type: cell-based
[9] = Substrate activity at NTR1 in promastigote stage of Leishmania donovani MHOM/SD/62/1S-CL2D assessed as inhibition of parasite growth after 72 hrs by resazurin dye based assay
Leishmania donovani [10] = assay: Antileishmanial activity against wild type promastigote stage of Leishmania donovani MHOM/SD/62/1S-CL2D after 72 hrs by resazurin dye based fluorescence assay; assay type: functional, organism-based
Leishmania infantum = assay: Antileishmanial activity against Leishmania infantum axenic amastigotes after 48 hrs by steady-glo luciferase reporter gene assay; assay type: functional, organism-based
[11] = Solubility of the compound in RPMI medium at >40 uM; assay type: physicochemical
[12] = Cytotoxicity against human THP1 cells after 72 hrs by MTT assay; assay type: cell-based; conditions: THP-1 cells
[13] = Aqueous solubility of the compound at >62.5 uM; assay type: physicochemical; conditions: buffer
[14] = Mutagenicity in Salmonella typhimurium TA100 at 62.5 to 625 uM preincubated for 1 hr with S9 mix followed by addition of molten top agar and measured 48 hrs post dark incubation by Ames test; assay type: toxicity, subcellular; conditions: salmonella enterica subsp. enterica serovar typhimurium, s9, 48 h
[15] = Mutagenicity in Salmonella typhimurium TA100 at 62.5 to 625 uM preincubated for 1 hr followed by addition of molten top agar and measured 48 hrs post dark incubation by Ames test; assay type: toxicity; conditions: salmonella enterica subsp. enterica serovar typhimurium
[16] = Mutagenicity in Salmonella typhimurium TA97a at 62.5 to 625 uM preincubated for 1 hr followed by addition of molten top agar and measured 48 hrs post dark incubation by Ames test; assay type: toxicity; conditions: salmonella enterica subsp. enterica serovar typhimurium
[17] = Mutagenicity in Salmonella typhimurium TA98 at 62.5 to 625 uM preincubated for 1 hr followed by addition of molten top agar and measured 48 hrs post dark incubation by Ames test; assay type: toxicity; conditions: salmonella enterica subsp. enterica serovar typhimurium
[18] = Mutagenicity in Salmonella typhimurium TA97a at 62.5 to 625 uM preincubated for 1 hr with S9 mix followed by addition of molten top agar and measured 48 hrs post dark incubation by Ames test; assay type: toxicity, subcellular; conditions: salmonella enterica subsp. enterica serovar typhimurium, s9, 48 h
[19] = Mutagenicity in Salmonella typhimurium TA98 at 62.5 to 625 uM preincubated for 1 hr with S9 mix followed by addition of molten top agar and measured 48 hrs post dark incubation by Ames test; assay type: toxicity, subcellular; conditions: salmonella enterica subsp. enterica serovar typhimurium, s9, 48 h
[20] = Mutagenicity in Salmonella typhimurium TA102 at 62.5 to 625 uM preincubated for 1 hr with S9 mix followed by addition of molten top agar and measured 48 hrs post dark incubation by Ames test; assay type: toxicity, subcellular; conditions: salmonella enterica subsp. enterica serovar typhimurium, s9, 48 h
[21] = Mutagenicity in Salmonella typhimurium TA102 at 62.5 to 625 uM preincubated for 1 hr followed by addition of molten top agar and measured 48 hrs post dark incubation by Ames test; assay type: toxicity; conditions: salmonella enterica subsp. enterica serovar typhimurium

O=[N+]([O-])c1c(CS(=O)(=O)c2ccccc2)nc2c(S(=O)(=O)c3ccc(Cl)cc3)cc(Cl)cn12
IC50 [1]: 1 µM | IC50 (Leishmania donovani [2]): 1.3 µM | IC50 [3]: 0.7 µM | Activity [4]: -0.59 V | Ratio IC50 (Leishmania donovani [5]): 8 | solubility [6]: Insoluble | Ratio IC50 (Leishmania donovani [7]): 8 | CC50 at 72 h [8]: > 12.5 µM | IC50 [9]: 0.08 µM | IC50 (Leishmania donovani [10]): 0.6 µM | IC50 (Leishmania infantum): 3.7 µM

CCCCCCCCCCCCCCCCOP(=O)([O-])OCC[N+](C)(C)C [MILTEFOSINE]
solubility [11]: Insoluble | CC50 at 72 h [12]: > 40 µM

Nc1c(CS(=O)(=O)c2ccccc2)nc2c(Sc3ccc(Cl)cc3)cc(Cl)cn12
IC50 [1]: 10.6 µM | IC50 (Leishmania donovani [2]): 124 µM | solubility [13]: Insoluble | CC50 at 72 h [8]: > 62.5 µM | IC50 (Leishmania infantum): 31.6 µM

O=[N+]([O-])c1c(CS(=O)(=O)c2ccccc2)nc2c([S+]([O-])c3ccc(Cl)cc3)cc(Cl)cn12 (configuration not stated)
IC50 [1]: 0.6 µM | IC50 (Leishmania donovani [2]): 1.3 µM | Activity [4]: -0.61 V | solubility [6]: Insoluble | Activity [14]: Non-Toxic | Activity [15]: Non-Toxic | Activity [16]: Non-Toxic | CC50 at 72 h [8]: > 12.5 µM | Activity [17]: Non-Toxic | Activity [18]: Non-Toxic | Activity [19]: Non-Toxic | Activity [20]: Non-Toxic | IC50 (Leishmania infantum): 1.6 µM | Activity [21]: Non-Toxic
